This is an account of results in patent publication US20210253651A1, “METHOD FOR PRODUCING ORGANIC COMPOUND-ENCAPSULATING FERRITIN” (Ajinomoto Co., Inc., priority 2018, published 2021).

The target of series [1] is T1, FTH ferritin (Homo sapiens, UniProt P02794).
T1 construct: made in house; host or cells: Escherichia coli BL21 (DE3), plasmid pET20-FTH
In words: one-step process incorporation of small molecule agents into FTH ferritin. Type of series: physicochemical. As to conditions: for Incorporation efficiency (wt %) / Number of agent incorporated: 60 min; for Optimal pH in reaction: pH of buffer giving the largest amount of incorporation within ferritin. As for the experimental part:
All of the reactions were performed in 0.1 mL volume. […] The absorbances were measured using spectrophotometer (DU-800, Beckman Coulter Inc.) for these solutions, and the concentration of contained protein was determined using the protein assay CBB solution (Nacalai Tesque, Inc.) as well as bovine albumin as a standard. Absorbances at 280 nm and 480 nm were measured for Rhodamine B and Congo Red. […] Then, after the absorbances were calibrated based on the absorbances that were derived from the proteins and presumed by the amount of contained protein quantified using the protein assay CBB solution, the concentrations of small molecule agents were determined based on the calibration curves obtained by the absorbances of the molecules. […] As a result, the one-step process enabled incorporating also the small molecule agents with different physical properties such as molecular weight and pKa simply and easily.

For series [2], the target named is T1, FTH ferritin. The series is described as follows: ratio of amounts incorporated, one-step vs disassembly-reassembly process. The class given is physicochemical. As for the experimental part: As a control, some of small molecule agents listed in Table 1 was incorporated into ferritin also at the disassembly-reassembly process. […] Then, 10 μL of 1M Tris-HCl buffer (pH 9.0) was added for neutralization, and the resulting solution was left to stand for 15 minutes at room temperature. After the standing, 0.5 mL of water was added. After the resulting solution was centrifuged (at 15,000 rpm for one minute), the supernatant was injected into the desalting column PD-10 (Sephadex G-25 filled product, GE Healthcare Inc.) equilibrated with 10 mM Tris-HCl buffer (pH 8) to separate the protein from a reagent that was not encapsulated. […]
The absorbances were measured using spectrophotometer (DU-800, Beckman Coulter Inc.) for these solutions, and the concentration of contained protein was determined using the protein assay CBB solution (Nacalai Tesque, Inc.) as well as bovine albumin as a standard. Absorbances at 280 nm and 480 nm were measured for Rhodamine B and Congo Red. […] Then, after the absorbances were calibrated based on the absorbances that were derived from the proteins and presumed by the amount of contained protein quantified using the protein assay CBB solution, the concentrations of small molecule agents were determined based on the calibration curves obtained by the absorbances of the molecules. […]

The nature of series [3]: pKa of the organic compound. The class given is physicochemical. As to conditions: average of plural pKa values. The text has this:
The pKa of the organic compound can be determined by a neutralization titration method (Kagaku Binran Kiso-hen I and II (Handbook of Chemistry, basic I and II) (Ver. 4) edited by The Chemical Society of Japan, Maruzen Publishing, 1993). […] When the organic compound has a single pKa value, the value is employed as the pKa of the organic compound.

Series [4] concerns the target T1, FTH ferritin. In words: one-step process incorporation of uranine into FTH ferritin. The class given is physicochemical. As for the experimental part: All reactions were carried out in 1 mL volume. After the standing and centrifuging (at 15,000 rpm for one minute), the supernatant was injected into the desalting column PD-10 (Sephadex G-25 filled product, GE Healthcare Inc.) equilibrated with 10 mM Tris-HCl buffer (pH 8) to separate the protein from a reagent that was not encapsulated, for obtaining 3.5 mL of sample solution. The absorbance at 430 nm was measured using spectrophotometer (DU-800, Beckman Coulter Inc.) for the resulting solution in order to determine the concentration of uranine. The concentration of contained protein was determined using the protein assay CBB solution (Nacalai Tesque, Inc.) as well as bovine albumin as a standard.

The target in series [5] is T1, FTH ferritin. In words: disassembly-reassembly process incorporation of uranine into FTH ferritin. The class given is physicochemical. As to the method:
As a control, uranine was incorporated into ferritin in the disassembly-reassembly process. […] Then, 10 μL of 1 M Tris-HCl buffer (pH 9.0) was added for neutralization, and the resulting solution was left to stand for 15 minutes at room temperature. After the standing, 0.5 mL of water was added. After the resulting solution was centrifuged (at 15,000 rpm for one minute), the supernatant was injected into the desalting column PD-10 (Sephadex G-25 filled product, GE Healthcare Inc.) equilibrated with 10 mM Tris-HCl buffer (pH 8) to separate the protein from a reagent that was not encapsulated. Whole amount (3.5 mL) of the resulting solution was concentrated to 0.1 mL by centrifugal ultrafiltration using Vivaspin 20-100K (GE Healthcare Inc.).

The conditions of series [6]: cited from earlier work.
For series [7] the following is noted: cited from earlier work. The source holds these as a separate data set.

Like-named read-outs stand apart in the source and are kept apart here.

T1 sequence (P02794 whole entry): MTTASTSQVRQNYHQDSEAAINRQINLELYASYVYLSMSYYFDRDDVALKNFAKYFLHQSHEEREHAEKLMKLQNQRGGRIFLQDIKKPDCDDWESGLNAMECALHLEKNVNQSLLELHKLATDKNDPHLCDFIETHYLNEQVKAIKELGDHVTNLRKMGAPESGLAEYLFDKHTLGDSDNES

As for `CN(C)C(=N)NC(=N)N` [Metformin], the “Incorporation efficiency (wt %)” value is recorded as 0.0 wt % at FTH ferritin [1] (pH 4, 40° C.); 0.0 wt % on FTH ferritin [1] (pH 6, 40° C.); 1.9 wt % on FTH ferritin [1] (pH 8, 20° C.); 0.1 wt % at FTH ferritin [1] (pH 8, 40° C.); 1.3 wt % at FTH ferritin [1] (pH 8, 60° C.); 0.0 wt % on FTH ferritin [1] (pH 10, 40° C.). Moreover, the “Number of agent incorporated” value worked out at 0.0 at FTH ferritin [1] (pH 4, 40° C.); 0.2 at FTH ferritin [1] (pH 6, 40° C.); 78.0 at FTH ferritin [1] (pH 8, 20° C.); 2.9 on FTH ferritin [1] (pH 8, 40° C.); 53.5 on FTH ferritin [1] (pH 8, 60° C.); 1.8 on FTH ferritin [1] (pH 10, 40° C.). Also, the “Optimal pH in reaction” value at FTH ferritin [1] is reported as 8. Besides, the “ratio of amount incorporated at the one-step process to that at the disassembly-reassembly process” value on FTH ferritin [2] is 2.5 fold.

By pKa is commonly meant the pH at which an ionisable group is half protonated. As for `O=C([O-])c1ccccc1-c1c2ccc(=O)cc-2oc2cc([O-])ccc12.[Na+].[Na+]` [Uranine], the “pKa (average)” value in series [3] was 4.4. The “amount of encapsulated uranine, one-step vs disassembly-reassembly process” value on FTH ferritin [4] is 2.7 fold. For the same molecule, the “Uranine” value at FTH ferritin [4] (30° C., pH 3) was found to be 71.0 µM; on FTH ferritin [4] (30° C., pH 5) it was 135.6 µM; at FTH ferritin [4] (30° C., pH 7), 68.5 µM; at FTH ferritin [4] (60° C., pH 3) it was 198.9 µM; at FTH ferritin [4] (60° C., pH 5), 201.4 µM; on FTH ferritin [4] (60° C., pH 7), 93.4 µM. The “Uranine” value was 864.5 µM on FTH ferritin [5] (uranine in reaction 1 mM); 1186.3 µM at FTH ferritin [5] (uranine in reaction 5 mM); 1382.1 µM on FTH ferritin [5] (uranine in reaction 10 mM); 1764.2 µM on FTH ferritin [5] (uranine in reaction 50 mM); 2106.1 µM at FTH ferritin [5] (uranine in reaction 100 mM); 2405.1 µM on FTH ferritin [5] (uranine in reaction 300 mM). In addition, the Uranine/FTH ferritin at FTH ferritin [4] (30° C., pH 3) is 99.2; on FTH ferritin [4] (30° C., pH 5), 183.6; at FTH ferritin [4] (30° C., pH 7) it was 90.0; on FTH ferritin [4] (60° C., pH 3) it was 267.5; on FTH ferritin [4] (60° C., pH 5), 265.3; at FTH ferritin [4] (60° C., pH 7), 137.7. For the same molecule, the Uranine/FTH ferritin at FTH ferritin [5] (uranine in reaction 1 mM) stood at 36.7; at FTH ferritin [5] (uranine in reaction 5 mM), 47.2; on FTH ferritin [5] (uranine in reaction 10 mM), 52.6; on FTH ferritin [5] (uranine in reaction 50 mM) it was 72.5; at FTH ferritin [5] (uranine in reaction 100 mM) it was 100.2; on FTH ferritin [5] (uranine in reaction 300 mM), 90.8. Further, the “optimum value of the reaction pH presumed from average pKa” value at FTH ferritin [4] (presumed from pH=2.6+0.6 pKa relation) is ~5. The pKa is 4.4 in series [6] (second pKa value), 2.2 in series [6] (single or first pKa value) and 6.7 in series [6] (third printed pKa value).

Broadly, the logP is the decadic logarithm of the partition coefficient of the neutral form, usually between octanol and water. With `CC(C)(C)NCC(O)c1cc(O)cc(O)c1` (stereo not shown) [Terbutaline], the pKa in series [3] is 9.31; in series [6] (second pKa value) it was 9.76; in series [6] (single or first pKa value) it was 8.86. For the same molecule, the “Incorporation efficiency (wt %)” value on FTH ferritin [1] (pH 4, 40° C.) worked out at 0.0 wt %; at FTH ferritin [1] (pH 6, 40° C.), 0.9 wt %; on FTH ferritin [1] (pH 8, 40° C.) it was 0.9 wt %; on FTH ferritin [1] (pH 10, 20° C.) it was 1.4 wt %; on FTH ferritin [1] (pH 10, 40° C.), 1.2 wt %; on FTH ferritin [1] (pH 10, 60° C.), 5.3 wt %. Further, the “Number of agent incorporated” value on FTH ferritin [1] (pH 4, 40° C.) was 0.0; on FTH ferritin [1] (pH 6, 40° C.), 19.5; on FTH ferritin [1] (pH 8, 40° C.), 21.0; on FTH ferritin [1] (pH 10, 20° C.), 32.8; at FTH ferritin [1] (pH 10, 40° C.), 27.1; at FTH ferritin [1] (pH 10, 60° C.), 126.8. Also, the “Optimal pH in reaction” value at FTH ferritin [1] is given as 10. In addition, the logP in series [7] is listed as 0.9.
